15 molecules from ChEMBL document CHEMBL1201862, “PubChem BioAssay data set” (2004) can be followed below.

Activity calls are given as the source filed them.

Test [1] is described as follows: cells.
Test [2] addresses Major prion protein (Homo sapiens, UniProt P04156). It is filed as functional, cell-based.
A short description of test [3]: inhibitors of Bluetongue virus cytopathic effect, confirmation, arbovirus, BSR cells (AID 1250).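 Note: protection from viral cytopathic effect measured as cell viability by ATP luminescence.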 In kind it is functional.
Test [4] can be described thus: inhibitors of clade B AD8 Env fusion, dose response, cell-based, cherry-pick (AID 652062).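 Note: luciferase signal from cell-cell fusion driven by HIV-1 clade B AD8 Env; potency is for inhibitors of fusion seen as a drop in luminescence.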 In kind it is functional.
Test [5] can be described thus: inhibitors of HIV Env-driven cell fusion, dose response, cherry-pick (AID 652057). It is filed as functional, cell-based.
Test [6] in a line: ZM109 Env clade C HIV-1 fusion inhibitors, dose response, HeLa effector, CEM target cells, luciferase, cherry-pick (AID 652058). In kind it is functional, cell-based.
Test [7] in a line: off-target signal loss in HeLa-CEM21 co-culture – HeLa F-luc CTL cells, cherry-picked, counter-screen for HIV-1 Env fusion inhibitor project, dose response (AID 652040).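 Note: potency for signal decrease marking cytotoxic or nonspecific inhibition.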 In kind it is functional, cell-based.
The nature of test [8]: HepG2 cell cytotoxicity, dose response, cytotoxicity control, plate reader, dry powder samples (AID 1159569).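 Note: inhibitor potency with signal falling toward the positive control level.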 In kind it is functional, cell-based.
Test [9] can be described thus: P. falciparum 3D7-ScDHODH growth inhibitors, dose response, SYBR Green, dry powder samples (AID 1159570).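 Note: parasite growth measured after 72 hours of compound exposure.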 In kind it is functional, cell-based.
A short description of test [10]: P. falciparum Dd2 growth inhibitors, dose response, SYBR Green, dry powder samples (AID 1159566).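 Note: potency for growth inhibition with lower SYBR green DNA signal.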 In kind it is functional, cell-based.
A short description of test [11]: P. falciparum Dd2 growth inhibitors, dose response, SYBR Green, cherry-picked samples (AID 1159567). It is filed as functional, cell-based.
Test [12] in a line: P. falciparum ATP4 D1247Y mutant growth inhibitors, dose response, NITD609-resistant line, SYBR Green, dry powder (AID 1159571).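 Note: parasites synchronized at ring stage by sorbitol before testing.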 In kind it is functional, cell-based.
Test [13] can be described thus: Shn3 3'UTR reporter inhibitors, dose response, cell-based, Clone20 osteoblasts, firefly luciferase, cherry-picked (AID 624132).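 Note: firefly luciferase luminescence from reporter carrying the Shn3 3'UTR in osteoblasts.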 It is filed as functional.
Test [14] is described as follows: HepG2 cell cytotoxicity, dose response, cytotoxicity control for Shn3 inhibitor project, CellTiter-Glo, cherry-picked (AID 624134). It is filed as functional, cell-based. Background: ATP-based viability assays read luminescence as a measure of living cells.
A short description of test [15]: control 3'UTR Renilla luciferase suppression, dose response, counter-screen for Shn3 inhibitor project, cell-based, Clone20-Shn3RL, cherry-picked (AID 624133). In kind it is functional. On the technique in general: The purpose of a counterscreen is to sort out artefacts and off-target activity.
The test system of test [16] is Streptococcus. In words: Group A Streptococcus viability loss, dose response, counter-screen for streptokinase expression inhibitor project, luminescence, BacTiterGlo (AID 1915).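 Note: potency for reduction of bacterial viability or growth.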 It is filed as functional, organism-based.
For test [17], the system named is Streptococcus sp. 'group A'. In words: growth inhibition of control SK(-) GAS strain, dose response, counter-screen for streptokinase expression inhibitor project, luminescence, kanamycin, BacTiterGlo, confirmation (AID 1900). In kind it is functional, organism-based.
The target of test [18] is T1, Streptokinase A (Streptococcus pyogenes serotype M1, UniProt P10520).
T1 sequence (P10520 whole entry): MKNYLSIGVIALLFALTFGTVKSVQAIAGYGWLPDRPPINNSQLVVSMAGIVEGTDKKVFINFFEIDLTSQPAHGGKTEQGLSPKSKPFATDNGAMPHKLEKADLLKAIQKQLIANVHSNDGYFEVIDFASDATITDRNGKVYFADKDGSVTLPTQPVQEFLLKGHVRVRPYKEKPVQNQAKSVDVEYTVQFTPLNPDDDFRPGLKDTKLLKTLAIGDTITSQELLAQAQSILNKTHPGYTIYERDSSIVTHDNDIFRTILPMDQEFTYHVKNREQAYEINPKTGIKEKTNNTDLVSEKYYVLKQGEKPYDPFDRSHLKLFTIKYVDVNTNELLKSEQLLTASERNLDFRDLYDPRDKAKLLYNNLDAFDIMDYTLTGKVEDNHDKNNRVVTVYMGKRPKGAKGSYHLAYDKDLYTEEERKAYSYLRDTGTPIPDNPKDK
In words: S. pyogenes streptokinase expression inhibitors, potency, dose response, plasminogen activation absorbance, OD405 (AID 1914).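 Note: secreted streptokinase activity via plasminogen activation per viability signal from cell pellet.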 In kind it is functional, Streptococcus pyogenes M1 GAS.

The target of test [19] is T2, Type-1 angiotensin II receptor (Homo sapiens, UniProt P30556).
T2 sequence (P30556 whole entry): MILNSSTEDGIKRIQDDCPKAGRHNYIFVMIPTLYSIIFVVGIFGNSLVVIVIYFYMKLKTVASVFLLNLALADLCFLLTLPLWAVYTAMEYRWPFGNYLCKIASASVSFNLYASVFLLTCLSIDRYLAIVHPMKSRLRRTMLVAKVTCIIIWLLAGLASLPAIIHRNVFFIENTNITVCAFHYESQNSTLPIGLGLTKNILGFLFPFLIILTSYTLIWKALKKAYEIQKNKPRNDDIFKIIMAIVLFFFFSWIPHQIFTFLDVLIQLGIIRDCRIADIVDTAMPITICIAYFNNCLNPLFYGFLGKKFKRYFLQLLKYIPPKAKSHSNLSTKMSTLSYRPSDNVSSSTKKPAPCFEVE
In words: AT1 receptor antagonists, dose response, selectivity assay for APJ receptor antagonist project, cell-based, uHTS hits (AID 463214).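 Note: antagonist potency against angiotensin II stimulated AT1 response.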 It is filed as functional.

The target in test [20] is Beta-galactosidase (Escherichia coli, UniProt Q8VNN2). The test can be described thus: PubChem AID 485352. In kind it is functional.

For the molecule `CCOc1ccc(C2C(C#N)=C(N)SC(N)=C2C#N)cc1OCC`, the results for the IC50 in test [1] and in [2] were > 138 µM (inactive) and 2.32 µM (active), respectively.
In the same order, the values of `Cc1sc2ncnc(Sc3ccccc3C(=O)O)c2c1C` are > 138 µM (inactive) and 0.908 µM (active).
As to `CCOC(=O)c1nn(-c2cccc(Cl)c2)c2nc(Nc3ccccc3)cc(=O)n12`, in test [3], the IC50 is 33 µM (active).
Turning to `COc1ccc([C@@H]2[C@@H]3C(=O)N(C(C)(C)C)C(=O)[C@@H]3[C@]3(CC(C)C)C(=O)N(c4ccc(C(F)(F)F)cc4)C(=O)N23)cc1`, the concentration at half-maximal activity (AC50) in [4] is 4.52 µM (active); in test [5], 1.6 µM (active); in test [6] it was 2.51 µM (active); in test [7] it was 3.8 µM (active).
With `Cc1ccc(C(=O)Nc2sc3c(c2C(=O)O)CCCCC3)o1`, the IC50 in [3] is 28.4 µM (active).
`CCC1(C)Cc2ccccc2-c2nc(S)nc(O)c21` (stereo not drawn): the IC50 in test [1] is > 138 µM (inactive).
As for `COc1ccc(NC(=O)Nc2ccc3c(c2)C(=O)N([C@H](C)CO)C[C@H](C)[C@H](CN(C)Cc2ccncc2)OCCCC[C@H](C)O3)cc1`, the AC50 in [4] was 20.1 µM (active); in test [5] it was 13 µM (active); in test [6] it was 8.87 µM (active).
In the case of `COc1cccc(OC)c1C(=O)NC(C)C12CC3CC(CC(C3)C1)C2` (stereo not drawn), the IC50 in [3] was 22.7 µM (active).
Regarding `CO[C@@H]1CN(C)C(=O)c2ccc(NC(=O)Nc3ccc(C(F)(F)F)cc3)cc2OC[C@H](C)NC[C@H]1C`, the concentration at half-maximal activity (AC50) was 32.6 µM (active) in [8]; 2.96 µM (active) in test [9]; 1.51 µM (active) in test [10]; 2.13 µM (active) in test [11]; 2.88 µM (active) in test [12].
On the same counts, the results for `C[C@@H]1CN([C@H](C)CO)C(=O)c2cccc(NC(=O)c3ccc(-c4nccs4)cc3)c2O[C@H]1CN(C)Cc1ccc2c(c1)OCO2` are > 100 µM (inactive), 3.63 µM (active), 3.02 µM (active), 1.19 µM (active) and 3.44 µM (active).
`O=C(c1ccccc1)N1CCN(c2ncnc3sc4c(c23)CCC4)CC1`: the concentration at half-maximal activity (AC50) in test [13] is 4.14 µM (active); in [5] it was 28.7 µM (active); in test [6], 41.4 µM (active); in test [14] it was 48 µM (active); in test [15] it was 4.25 µM (active).
In the case of `CCC1(C)Cc2ccccc2-c2[nH]c(=S)[nH]c(=O)c21` (stereo not drawn), in test [2], the IC50 was 2.93 µM (active).
In the case of `CO[C@H]1CN(C)C(=O)c2cc(NC(=O)Nc3cccc(Cl)c3)ccc2OC[C@H](C)NC[C@H]1C`, the AC50 was 25 µM (active) in test [8]; 3.37 µM (active) in [9]; 3.03 µM (active) in test [10]; 4.56 µM (active) in test [11]; 5.09 µM (active) in test [12].
Turning to `Cc1cc(NC(=O)CSc2nc(-c3cccs3)nc3ccccc23)no1`, the IC50 in [1] is 53.6 µM (inactive); in [2], 2.15 µM (active).
For `Cc1ccc(C)c(NC(=S)N/N=C2/CCCCc3ccccc32)c1`, the EC50 in test [16] is > 150 µM (not active); in test [17], 0.956 µM (active); in [18] it was > 150 µM (not active); in test [20], > 40 µM (inactive). Also, the half-inhibitory concentration (IC50) in test [19] was > 40 µM (not active).

What is called IC50 is the concentration at which inhibition is half-maximal. The AC50 is the concentration giving half of the maximal activity seen. As usually defined, the EC50 is the concentration that produces a half-maximal response.
